Entries after “also recorded” stand apart in the source; their conditions may differ. Read-outs that look alike come from different tables or passages of the source.
Key:
physchem = assay type: physicochemical; settings: pH 7.4
Description: Experimental Methods (ADME determinations).
ADME determinations for Compound 13 (data kindly supplied by LifeArc).
LogD measurements were carried out using the shake flask method. Compound was diluted from a 10 mM DMSO stock solution into an eppendorf containing equal amounts of octanol and phosphate buffered saline (PBS) to give a final concentration of 100 µM. The tubes were shaken for 12 hours, centrifuged at 10000 rpm for 10 minutes and samples taken from the octanol and PBS layers. The samples from both layers were analysed in triplicate by LC-MS/MS (Aglient Technologies G6410 series, triple quadrupole with MM-ESI ion source) using optimised multiple reaction monitoring (MRM) scans and a standard column gradient on an Acquity UPLC BEH C8 1.7 µm column, running acetonitrile and water with 0.05% acetic acid as the mobile phase. The ratios of areas of the peaks were used to calculate the Log D in accordance with the equation:
Log D = Log10(Area-TL/Area BL)
PBS pH7.4 in a filtration plate at a target concentration of 200 µM giving a final solution composition of 98:2 PBS:DMSO. […] The UV absorbance for these solutions was read across 230-400 nM at 1 nM intervals using a T ECAN Safire II plate reader and a suitable UV wavelength chosen around the UV maximum of each compound. […]

[1] = test system: MDR strain (Beijing-W) in human macrophages (THP1); assay type: cell-based, M. tuberculosis
hPTP1B = molecular target: T1, hPTP1B (Homo sapiens, UniProt P18031); test: biochemical; settings: read-out: IC50 hPTP1B (Supplementary Table 1)
T1 construct: GST (N, cleaved yes); made in house; host or cells: E. coli
T1 sequence (P18031 whole entry): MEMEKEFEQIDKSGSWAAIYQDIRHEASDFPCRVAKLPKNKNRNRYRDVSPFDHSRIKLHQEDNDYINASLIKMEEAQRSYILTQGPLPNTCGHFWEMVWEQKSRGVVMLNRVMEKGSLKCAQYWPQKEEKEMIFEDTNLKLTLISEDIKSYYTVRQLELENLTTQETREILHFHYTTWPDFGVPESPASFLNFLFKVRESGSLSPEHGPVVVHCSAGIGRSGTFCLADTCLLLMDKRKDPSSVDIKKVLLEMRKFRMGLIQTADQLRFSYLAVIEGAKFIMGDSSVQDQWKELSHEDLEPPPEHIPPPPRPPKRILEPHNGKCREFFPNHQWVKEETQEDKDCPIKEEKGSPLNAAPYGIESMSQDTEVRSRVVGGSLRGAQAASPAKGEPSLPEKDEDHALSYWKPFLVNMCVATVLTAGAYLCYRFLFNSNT

[2] = test system: BCG in mouse macrophages (J774); assay type: cell-based, Mycobacterium bovis Bacille Calmette-Guerin
[3] = Pharmacokinetic evaluation in guinea pigs; assay type: in vivo; settings: male, Durkin Hartley, guinea pig, in vivo
Description: Guinea pig males (Durkin Hartley) were used to evaluate the pharmacokinetics and tissue distribution of compounds. The route of administration was either intraperitoneal (ip) or oral (po) with dosage varying from 3.5 to 8 mg kg^–1 (op) and 2.5–4 mg kg^–1 (ip). In each case 4 samples were collected per time point at 0.1, 0.5, 2, 4, and 8 h post dose for ip and 0.25, 0.5, 2, 4, and 8 h post dose for po. Compounds were prepared in 10% DMSO, 5% Cremaphor, and 85% physiological saline for IP administration or 0.5% (v/v) Tween 80, 99.5% (v/v) 0.5% methylcellulose for oral administration. Tissue samples (n = 4) from lung, liver, and kidney were collected at the end of the study and snap frozen prior to bioanalysis.

hVHR = molecular target: T2, hVHR (Homo sapiens, UniProt P51452); test: biochemical; settings: read-out: IC50 hVHR (Supplementary Table 1)
T2 construct: GST (N, cleaved yes); made in house; host or cells: E. coli
T2 sequence (P51452 whole entry): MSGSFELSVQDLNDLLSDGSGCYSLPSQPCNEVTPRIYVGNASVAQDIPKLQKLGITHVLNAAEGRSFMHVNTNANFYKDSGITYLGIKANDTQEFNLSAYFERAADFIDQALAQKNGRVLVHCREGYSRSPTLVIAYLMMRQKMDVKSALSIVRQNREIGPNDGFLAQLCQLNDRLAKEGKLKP

[4] = test system: M. tuberculosis H37Rv in human macrophages (THP1); assay type: cell-based
[5] = guinea pig, 50 or 100 mg/kg orally once daily for 7 days
[6] = test system: PI3P on M. tuberculosis phagosomes (RAW264.7 macrophages); assay type: cell-based
BCG = assay type: cell-based, Mycobacterium bovis Bacille Calmette-Guerin
M. tuberculosis H37Rv = test: Acute guinea pig model of TB infection; assay type: in vivo; settings: 28 days of treatment, oral daily, 13 100 mg/kg, RIF 50 mg/kg
M. tuberculosis = assay type: in vivo, guinea pig
[7] = chronic model, 28 days of treatment from day 28, oral daily, 13 100 mg/kg, RIF 50 mg/kg
[8] = chronic model, 28 days of treatment from day 28, oral daily, 13 100 mg/kg, RIF 50 mg/kg, listed as Cpd 13

## Cc1onc(C(=O)O)c1-c1cccc(-c2cc(Cl)c(O)c(Cl)c2)c1 [Compound 13, 4-(3′,5′-Dichloro-4′-hydroxy-3-biphenyl)-5-methylisoxazole-3-carboxylic Acid]
physchem
  logD: 4
[1]
  reduction of intracellular mycobacterial burden, MDR strain (Beijing-W): up to 74%
hPTP1B
  IC50: > 100 µM
[2]
  reduction in intracellular mycobacterial (BCG) burden: up to 84%
[3]; ip, 4 mg/kg, IP, dose mg/kg: 13 4, 5 2.5, 8 1.25, 9 2.5
  half-life: 1.4 h
[3]; po, 8 mg/kg, oral, dose mg/kg: 13 8, 5 5, 8 3.5, 9 5
  half-life: 5 h
hVHR
  IC50: > 100 µM
[4]
  reduction of intracellular mycobacterial burden, H37Rv: up to 63%
[5]
  adverse drug effects (tolerability): no adverse drug effects
  weight increases during the tolerability trial: > 5%
[6]
  duration of the peak of PI3P on phagosomes: up to 12 min
BCG
  effect on extracellular growth of BCG: does not affect extracellular bacterial growth; also recorded: not affected
M. tuberculosis H37Rv
  Lungs infection burden, average: 5.9 log CFU
  Lungs log reduction relative to vehicle: 0.9 log
  Spleen infection burden, average: 5.6 log CFU
  Spleen log reduction relative to vehicle: 0 log
M. tuberculosis; [7]
  Lungs infection burden, average: 4.7 log CFU
  Lungs log reduction relative to vehicle: at least 1 log
  Spleen infection burden, average: 4.2 log CFU
  Spleen log reduction relative to vehicle: at least 1 log
M. tuberculosis; [8]
  Lungs log reduction relative to vehicle: 1.0 log
  Spleen log reduction relative to vehicle: 1.0 log
M. tuberculosis; guinea pig, in vivo
  Lungs weight % change relative to Vehicle: -19%
  Lungs weight, average: 4.4 g
  Spleen weight % change relative to Vehicle: -19%
  Spleen weight, average: 2.1 g
M. tuberculosis; guinea pig, in vivo, 100 mg/kg
  histopathology of lungs and spleens: improvement in the pathology

Source: publication PMC6459586, “Structure-Based Design of MptpB Inhibitors That Reduce Multidrug-Resistant Mycobacterium tuberculosis Survival and Infection Burden in Vivo” (Journal of Medicinal Chemistry, 2018)
